Data published in publication PMC4423729 (Neuropharmacology, 2010).

Tests used:
[1] = biological target: rtPA (Homo sapiens, UniProt P00750); assay: Plasminogen activator activity; format: biochemical; conditions: Glu-plasminogen 100 nM, Spectrazyme PL 500 μM, PBS, 37°C, A405, 3 experiments
[2] = tested on: isolated aortic rings; assay: tPA induced vasodilation: phenylephrine contraction of isolated aortic rings; conditions: rtPA 1 nM, peptide 100 nM; EC50 of phenylephrine contraction; 3 experiments
[3] = for solubility in an aqueous environment: qualitative
[4] = tested on: BBB permeability; assay: BBB permeability post ischemia; format: in vivo, rat; conditions: Evans blue, 12 animals/group
[5] = tested on: BBB permeability; assay: BBB permeability by extravasation of radiolabeled fibrinogen in rats; format: in vivo, rat; conditions: PAI-1 or peptide 1 mg/kg IV together with rtPA 1 mg/kg, 6 animals/group
[6] = tested on: Sprague-Dawley rats; conditions: rat, in vivo

Sequence of rtPA (P00750 36-562): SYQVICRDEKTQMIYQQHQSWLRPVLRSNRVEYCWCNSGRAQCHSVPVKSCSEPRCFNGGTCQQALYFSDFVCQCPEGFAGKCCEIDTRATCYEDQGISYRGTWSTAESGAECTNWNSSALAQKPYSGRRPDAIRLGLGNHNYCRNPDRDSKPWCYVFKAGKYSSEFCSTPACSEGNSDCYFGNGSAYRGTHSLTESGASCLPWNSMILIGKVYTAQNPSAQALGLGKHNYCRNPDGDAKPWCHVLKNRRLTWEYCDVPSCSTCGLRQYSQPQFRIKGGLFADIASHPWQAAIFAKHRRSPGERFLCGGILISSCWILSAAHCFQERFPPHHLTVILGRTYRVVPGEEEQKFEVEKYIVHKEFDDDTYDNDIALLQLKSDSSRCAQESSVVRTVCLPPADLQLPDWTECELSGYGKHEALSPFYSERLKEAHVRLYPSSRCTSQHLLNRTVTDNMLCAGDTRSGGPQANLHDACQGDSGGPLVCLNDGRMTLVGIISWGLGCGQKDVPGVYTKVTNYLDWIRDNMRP

Compound | effect on the catalytic activity of rtPA (plasminogen activation) [1] | inhibition of rtPA-induced vasodilation [2] | solubility in an aqueous environment [3] | inhibition of the late effect of rtPA on BBB permeability ([4]; peptide together with rtPA three hours after the filament was withdrawn) [%] | inhibition of rtPA-induced permeation of radiolabeled fibrinogen [5] | effect on the catalytic activity of rtPA (plasminogen activation) ([1]; listed as 18-aa- Phe^383) | maximal solubility ([3]; lyophilized peptide resuspended in 50% ethanol at 37°C, vortexed) [µg/mL] | effect of rtPA on mortality [6] | effect of rtPA on neurological severity score (NSS) [6] | mortality [6] [%] | BBB permeability post tMCAO ([4]; rtPA three hours after the filament was withdrawn)
CC[C@H](C)[C@H](NC(=O)[C@H](CCC(=O)O)NC(=O)[C@H](CCC(=O)O)NC(=O)[C@@H]1CCCN1C(=O)[C@H](C)NC(=O)[C@H](CCSC)NC(=O)[C@H](CCCNC(=N)N)NC(C)=O)C(=O)N[C@H](C(=O)N[C@@H](CCSC)C(=O)N[C@@H](CC(=O)O)C(=O)N[C@@H](CCCNC(=N)N)C(=O)N1CCC[C@H]1C(=O)N[C@@H](Cc1ccccc1)C(=O)N[C@@H](CC(C)C)C(=O)N[C@@H](Cc1ccc(O)cc1)C(=O)N[C@H](C(=O)N[C@H](C(=O)N[C@@H](CCCNC(=N)N)C(N)=O)C(C)C)C(C)C)[C@@H](C)CC [18-aa-Tyr^383] | without inhibiting the catalytic activity of rtPA | inhibited rtPA-induced vasodilation | more soluble in an aqueous environment than the original sequence | 96.7 | – | – | – | – | – | – | –
CC[C@H](C)[C@H](NC(=O)[C@H](CCC(=O)O)NC(=O)[C@H](CCC(=O)O)NC(=O)[C@@H]1CCCN1C(=O)[C@H](C)NC(=O)[C@H](CCSC)NC(=O)[C@H](CCCNC(=N)N)NC(C)=O)C(=O)N[C@H](C(=O)N[C@@H](CCSC)C(=O)N[C@@H](CC(=O)O)C(=O)N[C@@H](CCCNC(=N)N)C(=O)N1CCC[C@H]1C(=O)N[C@@H](Cc1ccccc1)C(=O)N[C@@H](CC(C)C)C(=O)N[C@@H](Cc1ccccc1)C(=O)N[C@H](C(=O)N[C@H](C(=O)N[C@@H](CCCNC(=N)N)C(N)=O)C(C)C)C(C)C)[C@@H](C)CC [18-aa] | without affecting the catalytic activity of rtPA | inhibited vasodilation | relatively insoluble | – | inhibited | without inhibiting the catalytic activity of rtPA | 200 | – | – | – | –
Ac-RMAPEEIIMDR-NH2 [11-aa] | without affecting the catalytic activity of rtPA | inhibited vasodilation | – | – | – | – | – | – | – | – | –
rtPA | – | – | – | – | – | – | – | increased mortality | aggravated the neurological disability | 28.6±4.2 | re-opened the BBB
